Data set [1] addresses T1, α1d-AR (Homo sapiens, UniProt P25100).
T1 construct: expressed in transfected cells; host or cells: COS-7
T1 sequence (P25100 1-572): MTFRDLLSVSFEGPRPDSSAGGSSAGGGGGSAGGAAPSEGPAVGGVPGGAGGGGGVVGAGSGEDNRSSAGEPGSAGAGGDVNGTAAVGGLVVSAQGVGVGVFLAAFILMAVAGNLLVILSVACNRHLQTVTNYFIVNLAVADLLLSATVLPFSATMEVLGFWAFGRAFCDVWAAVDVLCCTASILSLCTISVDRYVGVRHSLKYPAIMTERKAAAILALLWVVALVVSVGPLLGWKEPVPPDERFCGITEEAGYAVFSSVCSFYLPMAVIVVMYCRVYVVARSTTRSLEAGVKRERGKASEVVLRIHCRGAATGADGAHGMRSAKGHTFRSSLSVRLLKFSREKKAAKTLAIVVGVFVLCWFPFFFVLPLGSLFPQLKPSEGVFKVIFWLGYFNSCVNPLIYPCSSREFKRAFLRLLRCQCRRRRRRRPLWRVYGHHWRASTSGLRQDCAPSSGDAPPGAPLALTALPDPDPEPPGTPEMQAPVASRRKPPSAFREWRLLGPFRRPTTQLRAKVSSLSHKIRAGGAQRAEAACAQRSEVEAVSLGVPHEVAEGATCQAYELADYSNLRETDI
Put plainly: α1-Adrenergic receptor radio-ligand (125I-HEAT) binding assay, α1d subtype. The conditions noted are these: COS-7 cell membranes transfected with α1d-AR, 125I-HEAT 50 pM; read-out: Receptor Binding, Ki α1d-AR. Summed up: (§1)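 Membranes from COS-7 cells transfected with a single α1-AR subtype, incubated 1 h at rt with 50 pM 125I-HEAT and compound (1 pM–10 µM, half-log steps, final) in Tris/EDTA/NaCl pH 7.4. Bound radioactivity collected by GF/C filtration and scintillation counting, triplicates; Ki derived.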

Data set [2] concerns the target T2, α1b-AR (Homo sapiens, UniProt P35368).
T2 construct: expressed in transfected cells; host or cells: COS-7
T2 sequence (P35368 1-520): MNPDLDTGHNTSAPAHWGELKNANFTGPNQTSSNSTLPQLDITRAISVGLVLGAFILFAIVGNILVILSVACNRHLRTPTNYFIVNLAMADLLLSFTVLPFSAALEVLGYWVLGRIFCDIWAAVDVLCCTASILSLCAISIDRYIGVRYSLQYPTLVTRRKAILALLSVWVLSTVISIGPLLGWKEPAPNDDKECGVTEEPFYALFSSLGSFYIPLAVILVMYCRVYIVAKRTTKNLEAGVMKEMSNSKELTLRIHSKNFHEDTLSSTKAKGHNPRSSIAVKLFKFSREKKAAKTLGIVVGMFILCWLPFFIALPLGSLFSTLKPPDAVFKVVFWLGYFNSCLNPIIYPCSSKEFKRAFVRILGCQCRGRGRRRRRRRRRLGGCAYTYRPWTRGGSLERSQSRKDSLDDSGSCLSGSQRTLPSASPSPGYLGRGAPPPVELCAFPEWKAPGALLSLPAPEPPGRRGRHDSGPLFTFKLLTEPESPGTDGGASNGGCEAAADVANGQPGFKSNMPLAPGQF
Put plainly: α1-Adrenergic receptor radio-ligand (125I-HEAT) binding assay, α1b subtype. The conditions noted are these: COS-7 cell membranes transfected with α1b-AR, 125I-HEAT 50 pM; read-out: Receptor Binding, Ki α1b-AR. A digest of the protocol: as §1

The target in data set [3] is T3, α1a-AR (Homo sapiens, UniProt P35348).
T3 construct: expressed in transfected cells; host or cells: COS-7
T3 sequence (P35348 1-466): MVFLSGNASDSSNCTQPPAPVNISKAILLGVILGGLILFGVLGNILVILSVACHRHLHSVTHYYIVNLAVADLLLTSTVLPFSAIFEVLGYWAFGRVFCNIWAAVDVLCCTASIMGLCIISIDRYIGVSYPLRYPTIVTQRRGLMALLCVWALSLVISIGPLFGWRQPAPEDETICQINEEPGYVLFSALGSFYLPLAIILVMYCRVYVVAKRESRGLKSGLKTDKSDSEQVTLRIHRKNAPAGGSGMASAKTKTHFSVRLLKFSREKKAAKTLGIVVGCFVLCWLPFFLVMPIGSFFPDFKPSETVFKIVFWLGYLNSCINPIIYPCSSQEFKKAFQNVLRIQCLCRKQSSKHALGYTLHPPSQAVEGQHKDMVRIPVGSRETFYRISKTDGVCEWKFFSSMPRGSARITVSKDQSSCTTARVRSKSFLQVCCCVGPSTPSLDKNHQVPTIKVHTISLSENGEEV
Put plainly: α1-Adrenergic receptor radio-ligand (125I-HEAT) binding assay, α1a subtype. The conditions noted are these: COS-7 cell membranes transfected with α1a-AR, 125I-HEAT 50 pM; read-out: Receptor Binding, Ki α1a-AR. Summed up:
as §1

Take `COc1cccc(OC)c1CNc1ccc2c(c1)CCN2C(=O)c1cccc(CN2CCN(c3ccccc3OC(C)C)CC2)c1` [Cpd 25, [5-(2,6-dimethoxy-benzylamino)-2,3-dihydro-indol-1-yl]-{3-[4-(2-isopropoxy-phenyl)-piperazin-1-ylmethyl]-phenyl}-methanone]: the melting point (in general, the temperature of the solid-liquid transition) was 79 to 81 °C. In data set [1], the Ki (commonly the dissociation constant of the complex between target and ligand, obtained from inhibition or displacement) was 18 nM. The Ki in data set [2] amounted to 1300 nM. The Ki in data set [3] was 67 nM.
The corresponding values for `CC(C)Oc1ccccc1N1CCN(Cc2cccc(C(=O)N3CCc4cc(N)ccc43)c2)CC1` [Cpd 1, (5-amino-2,3-dihydro-indol-1-yl)-{3-[4-(2-isopropoxy-phenyl)-piperazin-1-ylmethyl]-phenyl}-methanone] are 137 to 139 °C, 8.6 nM, 301 nM and 1.5 nM.
`Cc1c(S(=O)(=O)Nc2ccc3c(c2)N(C(=O)c2cccc(CN4CCN(c5ccccc5OC(C)C)CC4)c2)CC3)sc2ccc(Cl)cc12` [Cpd 18, 5-chloro-3-methyl-benzo[b]thiophene-2-sulfonic acid (1-{3-[4-(2-isopropoxy-phenyl)-piperazin-1-ylmethyl]-benzoyl}-2,3-dihydro-1H-indol-6-yl)-amide] showed a melting point of 192 to 195 °C. Besides, in data set [1], the Ki worked out at 4 nM. Besides, the Ki in data set [2] is 43 nM. In addition, the inhibitory constant (Ki) in data set [3] is 0.04 nM.
Taken in the same sequence, the figures for `CC(C)Oc1ccccc1N1CCN(Cc2cccc(C(=O)N3CCc4ccc(NS(=O)(=O)c5cccc6c(N(C)C)cccc56)cc43)c2)CC1` [Cpd 32, 5-dimethylamino-naphthalene-1-sulfonic acid (1-{3-[4-(2-isopropoxy-phenyl)-piperazin-1-ylmethyl]-benzoyl}-2,3-dihydro-1H-indol-6-yl)-amide] were 137 to 139 °C, 9.4 nM, 610 nM and 2.7 nM.
In turn, `CC(=O)Nc1ccc(S(=O)(=O)Nc2ccc3c(c2)CCN3C(=O)c2cccc(CN3CCN(c4ccccc4OC(C)C)CC3)c2)cc1` [Cpd 19, N-[4-(1-{3-[4-(2-isopropoxy-phenyl)-piperazin-1-ylmethyl]-benzoyl}-2,3-dihydro-1H-indol-5-ylsulfamoyl)-phenyl]-acetamide] had a melting point of 132 to 134 °C. The Ki in data set [1] was 2.3 nM. Further, in data set [2], the Ki came to 383 nM. For the same compound, in data set [3], the inhibition constant Ki was 26 nM.
With `CC(C)Oc1ccccc1C1CCN(Cc2cccc(C(=O)N3CCc4ccc(NCc5ccccc5F)cc43)c2)CC1` [Cpd 57, [6-(2-fluoro-benzylamino)-2,3-dihydro-indol-1-yl]-{3-[4-(2-isopropoxy-phenyl)-piperidin-1-ylmethyl]-phenyl}-methanone], the Ki in data set [1] was found to be 1.4 nM; in data set [2], 237 nM; in data set [3], 1.8 nM.
On to `CCOC(OCC)c1ccc(CNc2ccc3c(c2)CCN3C(=O)c2cccc(CN3CCN(c4ccccc4OC(C)C)CC3)c2)cc1` [Cpd 24, [5-(4-diethoxymethyl-benzylamino)-2,3-dihydro-indol-1-yl]-{3-[4-(2-isopropoxy-phenyl)-piperazin-1-ylmethyl]-phenyl}-methanone], for which the figures for the Ki in data set [1], in data set [2] and in data set [3] were 15 nM, 1470 nM and 48 nM, respectively.
The corresponding values for `CCS(=O)(=O)Nc1ccc2c(c1)N(C(=O)c1cccc(CN3CCN(c4ccccc4OC(C)C)CC3)c1)CC2` [Cpd 47, ethanesulfonic acid (1-{3-[4-(2-isopropoxy-phenyl)-piperazin-1-ylmethyl]-benzoyl}-2,3-dihydro-1H-indol-6-yl)-amide] are 2.6 nM, 230 nM and 2.3 nM.
On to `COc1ccccc1C1CCN(Cc2ccc(C(=O)N3CCc4ccc([N+](=O)[O-])cc43)cc2)CC1` [Cpd 35, {4-[4-(2-methoxy-phenyl)-piperidin-1-ylmethyl]-phenyl}-(6-nitro-2,3-dihydro-indol-1-yl)-methanone], for which the values for the Ki in data set [1], in data set [2] and in data set [3] were 8.5 nM, 201 nM and 5.3 nM, respectively.
On to `CC(C)Oc1ccccc1N1CCN(Cc2cccc(C(=O)N3CCc4ccc(NC(N)=O)cc43)c2)CC1` [Cpd 49, (1-{3-[4-(2-isopropoxy-phenyl)-piperazin-1-ylmethyl]-benzoyl}-2,3-dihydro-1H-indol-6-yl)-urea], for which the results for the Ki in data set [1], in data set [2] and in data set [3] were 13 nM, 351 nM and 14 nM, respectively.
Consider `CCCCCCCCc1ccc(CNc2ccc3c(c2)CCN3C(=O)c2cccc(CN3CCN(c4ccccc4OC(C)C)CC3)c2)cc1` [Cpd 23, {3-[4-(2-isopropoxy-phenyl)-piperazin-1-ylmethyl]-phenyl}-[5-(4-octyl-benzylamino)-2,3-dihydro-indol-1-yl]-methanone], for which the melting point is 116 to 118 °C. Also, the Ki in data set [1] turned out to be 317 nM. Further, the Ki in data set [3] was determined as 195 nM.
Turning to `CC(C)Oc1ccccc1C1CCN(Cc2cccc(C(=O)N3CCc4ccc(NC(=O)Nc5c(F)cccc5F)cc43)c2)CC1` [Cpd 60, 1-(2,6-difluoro-phenyl)-3-(1-{3-[4-(2-isopropoxy-phenyl)-piperidin-1-ylmethyl]-benzoyl}-2,3-dihydro-1H-indol-6-yl)-urea], the results for the inhibitory constant (Ki) in data set [1], in data set [2] and in data set [3] were 0.4 nM, 121 nM and 0.4 nM, respectively.
In the case of `COc1ccccc1C1CCN(Cc2cccc(C(=O)N3CCc4ccc(NCc5ccccc5F)cc43)c2)CC1` [Cpd 59, [6-(2-fluoro-benzylamino)-2,3-dihydro-indol-1-yl]-{3-[4-(2-methoxy-phenyl)-piperidin-1-ylmethyl]-phenyl}-methanone], the inhibitory constant (Ki) was 1.1 nM in data set [1], 101 nM in data set [2] and 8.3 nM in data set [3].
The corresponding values for `CC(C)Oc1ccccc1N1CCN(Cc2cccc(C(=O)N3CCc4cc(NCc5ccc6c(c5)OCO6)ccc43)c2)CC1` [Cpd 27, {5-[(benzo[1,3]dioxol-5-ylmethyl)-amino]-2,3-dihydro-indol-1-yl}-{3-[4-(2-isopropoxy-phenyl)-piperazin-1-ylmethyl]-phenyl}-methanone] are 11 nM, 379 nM and 16.5 nM.
Turning to `CC(C)Oc1ccccc1N1CCN(Cc2cccc(C(=O)N3CCc4ccc(NC5CCc6ccccc6C5)cc43)c2)CC1` (centres unmarked) [Cpd 16, {3-[4-(2-isopropoxy-phenyl)-piperazin-1-ylmethyl]-phenyl}-[6-(1,2,3,4-tetrahydro-naphthalen-2-ylamino)-2,3-dihydro-indol-1-yl]-methanone], the results for the Ki in data set [1], in data set [2] and in data set [3] were 3.4 nM, 282 nM and 5.5 nM, respectively.
`CC(C)Oc1ccccc1N1CCN(Cc2cccc(C(=O)N3CCc4ccc(NS(=O)(=O)c5c(F)cccc5F)cc43)c2)CC1` [Cpd 45, 2,6-difluoro-N-(1-{3-[4-(2-isopropoxy-phenyl)-piperazin-1-ylmethyl]-benzoyl}-2,3-dihydro-1H-indol-6-yl)-benzenesulfonamide]: the Ki in data set [1] is 4 nM; in data set [2], 888 nM; in data set [3], 2.6 nM.
